Assay results as given in the NIST ThermoML archive (doi:10.1016/j.tca.2018.02.007).
± gives the expanded uncertainty stated by the source.

Assays:
[1] = for thermal conductivity: 101.33 kPa, T-histrory method; for Triple point temperature: DSC
[2] = Molar enthalpy of transition or fusion; conditions: DSC

thermal conductivity ([1]; 340.65 K, Crystal 2): 0.112 ± 0.007 W/m/K
thermal conductivity ([1]; 395.65 K, Crystal 2): 0.108 ± 0.007 W/m/K
thermal conductivity ([1]; 450.65 K, Crystal 2): 0.104 ± 0.006 W/m/K
Triple point temperature ([1]; Crystal 1): 531.25 ± 0.8 K
Triple point temperature ([1]; Crystal 2): 454.55 ± 0.8 K
Molar enthalpy of transition or fusion ([2]; Crystal 1): 5.85 ± 0.27 kJ/mol
Molar enthalpy of transition or fusion ([2]; Crystal 2): 35.9 ± 1.6 kJ/mol
SMILES: OCC(CO)(CO)CO [2,2-bis(hydroxymethyl)-1,3-propanediol]
